Source: US20260240836A1, “ENHANCER OF PHYSIOLOGICAL ACTIVITY OF HEPATOCYTE GROWTH FACTOR” (KYOWA HAKKO BIO CO., LTD., priority 2023, published 2026)

Columns and labels:
[1] = target: T1, binding between HGF and c-Met (Homo sapiens, UniProt P14210); test: ELISA-like HGF-c-Met binding assay on plate with immobilized recombinant c-Met; conditions: NC set to 1
T1 construct: purchased R&D Systems
Description: The effect of the addition of glutathione trisulfide (GSSSG) or lipoic acid trisulfide (LA-SSS) on the binding (affinity) between HGF and c-Met was examined by the following method. GSSSG or LA-SSS was added to recombinant HGF (R&D Systems) at a molar ratio of 1:4000 (HGF:GSSSG or HGF:LA-SSS) (FIG. 1(A)) or 1:8000 (HGF:GSSSG or HGF:LA-SSS) (FIG. 1(B)). An ELISA-like HGF-c-Met binding assay was performed using a 96-well cluster plate with immobilized recombinant c-Met (R&D Systems) (Tatsumni et al. 2002; the principle of this method is schematically shown in FIG. 1(C)). Table 2 and FIGS. 1(A) and (B) show the relative values of each experimental group, with the A450-535 nm (absorbance at 450 nm minus absorbance at 535 nm) of the negative control (NC) set to 1.
In Table 2 and FIG. 1, NC: negative control (no addition), PC: positive control (HGF only addition), PC′: addition of solvent used to dissolve GSSSG and HGF, A′: addition of solvent used to dissolve GSSSG, GSSSG, and HGF (1 ng/ml), A: addition of solvent used to dissolve GSSSG and GSSSG, PC″: addition of solvent used to dissolve LA-SSS and HGF, B′: addition of solvent used to dissolve LA-SSS, LA-SSS, and HGF (1 ng/ml), B: addition of solvent used to dissolve LA-SSS and LA-SSS.

[2] = system: muscle stem cells (satellite cells); test: Muscle stem cell (satellite cell) activation by HGF, BrdU pulse labeling; format: cell-based, rat; conditions: for Percentage of BrdU-positive cells (%): NC 46.9; for percentage of BrdU-positive cells / enhancing effect on muscle stem cell activation by HGF: HGF 3 ng/ml; for percentage of BrdU-positive cells: trisulfide at 4000 or 8000 moles per 1 mole HGF, vs. NC, p<0.05; for enhancing effect on muscle stem cell activation by HGF: trisulfide at 8000 moles per 1 mole HGF
Description: The effect of the addition of GSSSG or LA-SSS on the muscle stem cell activation effect of HGF (3 ng/ml) was examined by the following method. GSSSG or LA-SSS was added to recombinant HGF (R&D Systems) at a molar ratio of 1:4000 (HGF:GSSSG or HGF:LA-SSS) (FIG. 2(A)) or 1:8000 (HGF:GSSSG or HGF:LA-SSS) (FIG. 2(B)). The activation effect of HGF was measured using a culture system of muscle stem cells (satellite cells). Quiescent muscle stem cells were isolated from the skeletal muscle of 8-9-month-old mature rats in accordance with a modified method of Allen et al. (1997) (Tatsumi et al. 2006), and cultured for 24 hours in DMEM containing 10% normal horse serum (DMEM-10% HS, pH 7.2). HGF mixed with GSSSG or LA-SSS was added to a final concentration of 3 ng/ml, and after further culture for 24 hours, the activation rate of muscle stem cells was measured by the bromodeoxyuridine (BrdU) pulse labeling method. Cells that had incorporated BrdU were visualized with an anti-BrdU monoclonal antibody, and the percentage of positive cells was used as an indicator of muscle stem cell activation (Tatsumi et al. 1998).
In FIG. 2, NC: negative control (no addition), PC: positive control (HGF only addition), A′: addition of GSSSG and HGF (3 ng/ml), A: addition of GSSSG, B′: addition of LA-SSS and HGF (3 ng/ml), B: addition of LA-SSS.
The effect of the addition of GSSSG or LA-SSS on the muscle stem cell activation effect of HGF (1 ng/ml) was examined in the same manner as in Example 2, except that the final concentration of HGF was 1 ng/ml instead of 3 ng/ml.
In Table 3 and FIG. 4, NC: negative control (no addition), PC′: positive control (HGF (I ng/ml) only addition), A′: addition of GSSSG and HGF (I ng/ml), A: addition of GSSSG, B′: addition of LA-SSS and HGF (1 ng/ml), B: addition of LA-SSS, PC: positive control (HGF (3 ng/ml) only addition).

[3] = 1:4000 series, trisulfide and its solvent without HGF
[4] = 1:8000 series, trisulfide and its solvent without HGF
[5] = HGF:A,B molar ratio 1:4000 series, HGF 1 ng/mL present, PC′/PC″ = HGF plus solvent only
[6] = HGF:A,B molar ratio 1:8000 series, HGF 1 ng/mL present, PC′/PC″ = HGF plus solvent only
[7] = HGF 1 ng/ml present, trisulfide at 1:8000 molar ratio, PC′ = HGF 1 ng/ml only

T1 sequence (P14210 32-494 limits assumed): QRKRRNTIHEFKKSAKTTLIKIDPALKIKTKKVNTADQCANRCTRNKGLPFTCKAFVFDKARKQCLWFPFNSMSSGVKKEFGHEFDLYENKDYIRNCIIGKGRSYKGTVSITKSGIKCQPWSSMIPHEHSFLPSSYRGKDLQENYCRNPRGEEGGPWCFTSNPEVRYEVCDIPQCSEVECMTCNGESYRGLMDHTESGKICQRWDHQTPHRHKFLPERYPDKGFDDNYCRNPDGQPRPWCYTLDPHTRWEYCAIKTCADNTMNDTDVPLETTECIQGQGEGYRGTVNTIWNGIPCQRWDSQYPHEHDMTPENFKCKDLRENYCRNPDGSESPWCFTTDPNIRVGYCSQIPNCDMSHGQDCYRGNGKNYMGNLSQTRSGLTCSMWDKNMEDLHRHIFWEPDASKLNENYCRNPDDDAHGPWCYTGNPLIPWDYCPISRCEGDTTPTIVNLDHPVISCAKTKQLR

A450-535 um (Relative units) (Average value) [1, 3] | A450-535 um (Relative units) (Average value) [1, 4] | A450-535 um (Relative units) (Average value) [1, 5] | A450-535 um (Relative units) (Average value) [1, 6] | Compound | Percentage of BrdU-positive cells (%) [2, 7] | percentage of BrdU-positive cells [2] | enhancing effect on muscle stem cell activation by HGF [2] | Percentage of BrdU-positive cells (%) ([2]; trisulfide alone, without HGF) | further results
1.28 | 1.14 | increased | significantly increased | O=C(O)CCCCC1CCSSS1 (stereo not drawn) [LA-SSS, lipoic acid trisulfide] | significantly increased | significantly increased | not observed | 48.8 | A450-535 um (Relative units) (Average value) ([1]; HGF:A,B molar ratio 1:4000 series, HGF 1 ng/mL present, PC′/PC″ = HGF plus solvent only, listed as B'): 9.55 Relative units; A450-535 um (Relative units) (Average value) ([1]; HGF:A,B molar ratio 1:8000 series, HGF 1 ng/mL present, PC′/PC″ = HGF plus solvent only, listed as B′): 19.60 Relative units; Percentage of BrdU-positive cells (%) ([2]; HGF 1 ng/ml present, trisulfide at 1:8000 molar ratio, PC′ = HGF 1 ng/ml only, listed as B′): 64.2%
– | – | – | – | HGF: recombinant hepatocyte growth factor (R&D Systems); positive control, alone or with trisulfide solvent | significantly increased | – | – | – | A450-535 um (Relative units) (Average value) ([1]; HGF:A,B molar ratio 1:4000 series, HGF 1 ng/mL present, PC′/PC″ = HGF plus solvent only, listed as PC′): 9.39 Relative units; A450-535 um (Relative units) (Average value) ([1]; HGF:A,B molar ratio 1:4000 series, HGF 1 ng/mL present, PC′/PC″ = HGF plus solvent only, listed as PC″): 9.00 Relative units; A450-535 um (Relative units) (Average value) ([1]; HGF:A,B molar ratio 1:8000 series, HGF 1 ng/mL present, PC′/PC″ = HGF plus solvent only, listed as PC′): 10.21 Relative units; A450-535 um (Relative units) (Average value) ([1]; HGF:A,B molar ratio 1:8000 series, HGF 1 ng/mL present, PC′/PC″ = HGF plus solvent only, listed as PC″): 10.04 Relative units; A450-535 um (Relative units) (Average value) ([1]; positive control, HGF only addition): 9.85 Relative units; Percentage of BrdU-positive cells (%) ([2]; HGF 1 ng/ml present, trisulfide at 1:8000 molar ratio, PC′ = HGF 1 ng/ml only, listed as PC′): 55.3%; Percentage of BrdU-positive cells (%) ([2]; HGF 3 ng/ml only addition): 65.9%
1.21 | 1.16 | increased | significantly increased | N[C@@H](CCC(=O)N[C@@H](CSSSC[C@H](NC(=O)CC[C@H](N)C(=O)O)C(=O)NCC(=O)O)C(=O)NCC(=O)O)C(=O)O [GSSSG, glutathione trisulfide] | increased | significantly increased | not observed | 47.5 | A450-535 um (Relative units) (Average value) ([1]; HGF:A,B molar ratio 1:4000 series, HGF 1 ng/mL present, PC′/PC″ = HGF plus solvent only, listed as A′): 9.67 Relative units; A450-535 um (Relative units) (Average value) ([1]; HGF:A,B molar ratio 1:8000 series, HGF 1 ng/mL present, PC′/PC″ = HGF plus solvent only, listed as A′): 11.22 Relative units; Percentage of BrdU-positive cells (%) ([2]; HGF 1 ng/ml present, trisulfide at 1:8000 molar ratio, PC′ = HGF 1 ng/ml only, listed as A′): 57.5%
